The text below walks through data of US20190008973A1, “INTRALIPID-IODINE FOR IMAGING” (priority 2017, published 2019).

Counter-ions that a name gives are not always drawn. Like-named read-outs stand apart in the source and are kept apart here.

For series [1], the system named is acetylcholinesterase (AChE) / neuronal degeneration. The conditions noted are these: cited from earlier work; for serum AChE: rat, in vivo.
In series [2] the test system is fallopian tube and adnexal tissue. The settings on record: cited from earlier work.
In series [3] the test system is PLA(2) and PLC. The settings on record: rat, in vivo; cited from earlier work.
The test system of series [4] is propofol-mediated hypotension. The settings on record: cited from earlier work.
Series [5] has as its system hippocampal slices. The settings on record: cited from earlier work.
The subject of series [6] is post ischaemic stunned myocardium. The settings on record: dog, in vivo; cited from earlier work.
For series [7], the system named is traumatic brain injury. The settings on record: cited from earlier work.
Series [8] relates to free fatty acid efflux. The conditions noted are these: cited from earlier work; for I/R-evoked FFA efflux: 20-min ischemia, 40 min reperfusion.
The subject of series [9] is lipid-dependent mitochondrial respiration (carnitine exchange). The settings on record: cited from earlier work.
The subject of series [10] is brachial plexus. The settings on record: 150 μg clonidine or 200 μg epinephrine with 0.25% bupivacaine; cited from earlier work.
Series [11] has as its system myocardial ischemia-reperfusion injury. The conditions noted are these: cited from earlier work.
Series [12] deals with T1, N-methyl-D-aspartate receptor channels (Mus musculus, UniProt P35438).
T1 construct: cultured cortical neurons from the mouse; endogenous in cells; host or cells: cultured mouse cortical neurons
The conditions noted are these: cited from earlier work.

Series [13] has as its system ischemia-reperfusion (IR) injury. The conditions noted are these: cited from earlier work.
Series [14] has as its target T2, mitochondrial ATPase (Homo sapiens, UniProt P06576+P25705).
T2 construct: mitochondrial ATPase prepared by the chloroform extraction method; from tissue; host or cells: mitochondria
The settings on record: cited from earlier work; for kind of inhibition: reciprocal plots.

The subject of series [15] is total spinal anesthesia. The settings on record: in vivo; cited from earlier work.
The test system of series [16] is post operative delirium. Description: Lipid Emulsion Treatment of post operative delirium/POCD, 4 case reports. It counts as in vivo, human. The conditions noted are these: case 1, 60 min.
Series [17] relates to spinal cord ischemia and reperfusion. The conditions noted are these: intravenous; cited from earlier work.
Series [18] has as its system soft tissue anesthesia (STA). The conditions noted are these: in vivo; cited from earlier work.

T2 sequence (P25705 44-553): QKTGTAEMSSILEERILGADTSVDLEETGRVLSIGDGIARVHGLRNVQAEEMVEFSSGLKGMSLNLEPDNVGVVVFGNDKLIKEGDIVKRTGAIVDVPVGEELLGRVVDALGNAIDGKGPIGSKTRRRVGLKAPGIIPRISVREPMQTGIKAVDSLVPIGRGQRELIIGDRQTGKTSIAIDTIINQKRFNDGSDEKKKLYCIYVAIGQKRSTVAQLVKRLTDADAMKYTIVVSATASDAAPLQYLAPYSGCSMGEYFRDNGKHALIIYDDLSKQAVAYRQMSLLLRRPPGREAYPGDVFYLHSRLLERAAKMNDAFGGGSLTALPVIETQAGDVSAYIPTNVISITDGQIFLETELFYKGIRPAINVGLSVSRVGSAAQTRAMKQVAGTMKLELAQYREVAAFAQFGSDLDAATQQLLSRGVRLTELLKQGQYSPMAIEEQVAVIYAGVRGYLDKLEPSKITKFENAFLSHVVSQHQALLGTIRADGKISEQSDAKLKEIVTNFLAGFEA
T2 sequence (P06576 48-529): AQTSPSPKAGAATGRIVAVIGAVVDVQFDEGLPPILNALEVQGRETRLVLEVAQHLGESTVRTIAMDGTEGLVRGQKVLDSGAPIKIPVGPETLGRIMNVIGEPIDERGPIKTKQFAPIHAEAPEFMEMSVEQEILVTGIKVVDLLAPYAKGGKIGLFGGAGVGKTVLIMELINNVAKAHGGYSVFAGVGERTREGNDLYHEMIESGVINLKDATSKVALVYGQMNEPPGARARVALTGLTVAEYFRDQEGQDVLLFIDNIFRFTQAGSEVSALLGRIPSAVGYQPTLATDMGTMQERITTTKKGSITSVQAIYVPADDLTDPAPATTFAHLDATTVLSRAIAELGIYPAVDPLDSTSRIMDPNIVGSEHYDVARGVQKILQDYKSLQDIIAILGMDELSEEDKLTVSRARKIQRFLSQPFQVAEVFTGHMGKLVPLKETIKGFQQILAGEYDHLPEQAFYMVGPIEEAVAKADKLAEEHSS
T2 sequence (P36542 26-298 partner): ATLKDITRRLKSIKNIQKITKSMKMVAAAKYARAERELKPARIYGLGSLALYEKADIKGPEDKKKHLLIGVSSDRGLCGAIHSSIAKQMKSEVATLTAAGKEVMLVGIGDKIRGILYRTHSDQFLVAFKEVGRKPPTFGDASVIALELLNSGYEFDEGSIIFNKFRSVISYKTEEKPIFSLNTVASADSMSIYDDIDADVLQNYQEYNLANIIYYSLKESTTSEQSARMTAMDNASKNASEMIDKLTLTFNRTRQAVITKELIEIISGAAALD
T2 sequence (P30049 23-168 partner): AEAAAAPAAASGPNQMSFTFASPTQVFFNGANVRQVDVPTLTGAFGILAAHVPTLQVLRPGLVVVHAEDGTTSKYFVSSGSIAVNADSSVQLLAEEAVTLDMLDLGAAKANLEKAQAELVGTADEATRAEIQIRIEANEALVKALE
T2 sequence (P56381 2-51 partner limits assumed): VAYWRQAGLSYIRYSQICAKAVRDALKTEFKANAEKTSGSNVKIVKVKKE

Regarding `O=C(/C=C/c1ccc(O)c(O)c1)OCCc1ccccc1` [CAPE, caffeic acid phenethyl ester], the neuronal degeneration result in series [1] (histologic examination) is given as “significant effect on protection of neuronal degeneration”. Also, in [1], the “serum AChE” value is “inhibited AChE”. With `CC(=O)N(CC(O)CO)c1c(I)c(C(=O)NCCO)c(I)c(C(=O)NCC(O)CO)c1I` (stereo not drawn) [Ioxilan, ioxilan], in series [2] (histology), the “pathologic response in tube or peritoneal cavity” value (shortened to “pathologic response”) is reported as “no pathologic response”. With `COc1ccc2c(c1)CC[C@@H]1[C@@H]2CC[C@]2(C)[C@@H](NCCCCCCN3C(=O)C=CC3=O)CC[C@@H]12` [U73122], the “FFA efflux during ischemia-reperfusion injury” value in series [3] is recorded as “had no observed effect”.

Consider 20% BSA, for which, in [4] (EEG), the “effect on propofol induced cortical burst suppression” value is listed as −2+/−1%.

Take `C[C@@H]1C[C@@H]([C@H](O)CC2CC(=O)NC(=O)C2)C(=O)[C@@H](C)C1` [CHX, cycloheximide]: the “effect on neuroprotection by arachidonic acid” value in series [5] (BADGE 100 microM, CHX 30 microM) is “completely abolished”.

For `N[C@H](C(=O)O)c1ccc(O)cc1` [Oxfenicine, oxfenicine], the “effect of pretreatment on benefit of Intralipid” value in series [6] is listed as “completely abolished”. With conjugated linoleic acids [CLA], the “latency to find the hidden MWM platform” value in [7] (CCI-injured, saline 30.7±5.5) is 66.8 ± 10.6 s. In addition, the “latency to find the hidden Morris Water Maze platform” value in [7] (Sham, saline 8.8±1.7) was 40.3 ± 13.0 s. Regarding `C[N+](C)(C)CC[N+]1(C)Cc2c(Cl)c(Cl)c(Cl)c(Cl)c2C1` [chlorisondamine], the “lowering of MAP” value in series [4] (2.5 mg/kg IV) is given as 56+/−3%. Ryanodine: the “I/R-evoked FFA efflux” value in series [8] is on record as “significantly enhanced ischemia/reperfusion-elicited efflux of linoleic acid”.

Regarding `CN1[C@H]2CC[C@@H]1[C@@H](C(=O)O)[C@@H](OC(=O)c1ccccc1)C2` [benzoylecgonine], in series [9], the lipid-dependent mitochondrial respiration entry is given as “not”. Take 4-bromophenylacyl bromide [BPB]: the “FFA efflux during ischemia-reperfusion injury” value in series [3] is “significantly inhibited FFA efflux”. On to `CN1CCN(CCCN2c3ccccc3Sc3ccc(C(F)(F)F)cc32)CC1` [trifluoperazine], for which the “I/R-evoked FFA efflux” value in series [8] was “very effective in suppressing ischemia/reperfusion evoked release of all six FFAs”. For `C1CCC[C@H]2CCCN3CC[C@@H](CCCCCC[C@@H]4CCCN5CC[C@@H](CC1)O[C@@H]45)O[C@@H]23` [Xestospongin C], the “I/R-evoked FFA efflux” value in [8] is given as “failed to affect I/R-evoked FFA efflux”. As for `Clc1cccc(Cl)c1N=C1NCCN1` [clonidine, clonidine hydrochloride], in series [10], the duration of block is 994.2 ± 34.2 min. For `CCCCC/C=C\C/C=C\C/C=C\C/C=C\CCCC(=O)O` [Arachidonic acid, 5,8,11,14-eicosateraenoic acid], the “protection from glutamate and H(2)O(2) injury” value in series [5] (1-10 microM) is on record as “dose dependently protected”. As for `CC(C)(c1ccc(OCC2CO2)cc1)c1ccc(OCC2CO2)cc1` (stereo not drawn) [BADGE, bisphenol A diglycidyl ether], the “effect on neuroprotection by arachidonic acid” value in [5] is “completely abolished”.

For the molecule `FC(F)OC(Cl)C(F)(F)F` (stereo not drawn) [IS, isoflurane], the plasma lactate dehydrogenase in [11] (3 h after reperfusion, group C 676+/−82) is 456+/−58 U/L. In [11] (3 h after reperfusion, group C 2373+/−529), the plasma creatine kinase was 1725+/−230 U/L. Also, the “myocardial infarct size 3 h after reperfusion” value in series [11] (group C 39%+/−6%) is 20%+/−8%. Turning to DL-AP5, the “effect on emulsion-induced currents” value in series [12] is reported as “inhibited”. As to `Cn1cc(C2=C(c3ccc(Cl)cc3Cl)C(=O)NC2=O)c2ccccc21` [SB216763], the “cardioprotection in sham-operated hearts exposed to IR” value in [13] (1% ILP 15 min) is listed as “conferred cardioprotection”. In series [13], the “cardioprotection in hypertrophied myocardium” value was “failed to exert cardioprotection”. Regarding ecgonine, the lipid-dependent mitochondrial respiration result in [9] is on record as “not”.

Turning to `CN(C)CCCN1c2ccccc2Sc2ccc(Cl)cc21` [chlorpromazine], the kind of inhibition result in series [14] was “non-competitive”.

For the molecule `CCOP(=S)(OCC)Oc1nc(Cl)c(Cl)cc1Cl` [chlorpyriphos, Chlorpyriphos], the “serum AChE” value in [1] was “inhibited AChE”. Consider `CCN(CC)CC(=O)Nc1c(C)cccc1C` [lidocaine], for which, in series [15], the “further time to consciousness” value is 80 min and the “time to spontaneous respiration” value was 45 min. The kind of inhibition entry in series [14] is “non-competitive”. With `CCOC(=O)c1ccc(N)cc1` [benzocaine], the “inhibition of the enzyme” value in [14] is given as “inhibits the enzyme at all pH values”. Turning to `O=C1CN(/N=C/c2ccc(-c3ccc([N+](=O)[O-])cc3)o2)C(O)=N1` [Dantrolene], the “I/R-evoked FFA efflux” value in series [8] was “significantly inhibited I/R-evoked release of docosahexaenoic, arachidonic, linoleic and oleic acids”.

For the molecule picrotoxin, the “effect on emulsion-induced currents” value in [12] is given as “not affected”. Turning to `C/C=C(/C)C(=O)O[C@H]1C(C)=C2[C@H]([C@@H]1OC(=O)CCCCCCC)[C@@](C)(OC(C)=O)C[C@H](OC(=O)CCC)[C@@]1(O)[C@H]2OC(=O)[C@@]1(C)O` [Thapsigargin], the “FFA efflux in the absence of ischemia” value in series [8] (rat, in vivo) was “elicited significant elevations in the efflux of myristic, arachidonic and linoleic acids”. For the molecule `CCCCOc1cc(C(=O)NCCN(CC)CC)c2ccccc2n1` [dibucaine], the kind of inhibition result in series [14] is reported as “non-competitive”. `O=C(CCCN1CCC(O)(c2ccc(Cl)cc2)CC1)c1ccc(F)cc1` [Haloperidol]: in series [16], the “agitation after conventional sedatives” value was “had not improved”. Turning to `CCCC(C)C1(CC)C(=O)NC(=S)NC1=O` (stereo not drawn) [thiopental], the injured animals in series [17] is recorded as 100%. Take `Cc1ncc2n1-c1ccc(Cl)cc1C(c1ccccc1F)=NC2` [midazolam]: the “agitation after conventional sedatives” value in series [16] is “had not improved”. As for `CNC(=O)c1c(I)c(NC(C)=O)c(I)c(C(=O)O)c1I.CNC[C@H](O)[C@@H](O)[C@H](O)[C@H](O)CO` [Iothalamate meglumine 60%, iothalamate meglumine], the “pathologic response” value in [2] (rabbit, in vivo) was “mild inflammatory infiltrate, mucosal edema, giant cell reaction, and periovarian adhesions”. Regarding `CNC(=O)c1c(I)c(NC(C)=O)c(I)c(C(=O)O)c1I.CNC[C@H](O)[C@@H](O)[C@H](O)[C@H](O)CO` [iothalamate meglumine 30%, iothalamate meglumine], in series [2] (rabbit, in vivo), the “pathologic response” value was “no pathologic response”. For `O=C1O/C(=C/Br)CCC1c1cccc2ccccc12` (stereo not drawn) [BEL, bromoenol lactone], the “FFA efflux during ischemia-reperfusion injury” value in series [3] is given as “had only minimal effects on FFA efflux”. As for `Cc1ccc(N(CC2=NCCN2)c2cccc(O)c2)cc1` [PM (OraVerse), phentolamine mesylate], in [18], the “duration of residual STA” value is “significantly decrease the duration of residual STA” and the “safety outcomes in school-based dental clinic” value is “improve safety outcomes”. On to `CNC1(c2ccccc2Cl)CCCCC1=O` (stereo not drawn) [ketamine], for which, in series [12], the “effect on emulsion-induced currents” value is listed as “inhibited”.

For `CCOC(=O)[C@@H]1C2CCC(C[C@@H]1OC(=O)c1ccccc1)N2C` (stereo partly drawn) [cocaethylene], the lipid-dependent mitochondrial respiration result in [9] was “inhibited”.
